Consider 5 molecules from patent publication US20230174633A1, “METHODS AND COMPOSITIONS FOR MODULATING LIPID STORAGE IN ADIPOSE TISSUE” (MEMORIAL SLOAN KETTERING CANCER CENTER, priority 2020, published 2023).

Residue numbers refer to the chain shown, from its start.

One assay concerns Lepr^-/- (db/db) mice. The assay can be described thus: PLX5622 treatment of leptin-receptor deficient mice that spontaneously develop obesity. Type of assay: in vivo, mouse. From the text:
(§1) Mice and diets. All experiments on mice were realized in accordance with an animal license issued by the Institutional Review Board (IACUC 15-04-006) from MSKCC. All mice were maintained under SPF conditions. C57B1/6J male mice were purchased from Jackson laboratories. Rosa26^LSL-Tomato (Stock No: 007908), Rosa26^LSL-^YFP (Stock No:006148), Rosa26^mTmG (Stock No: 007576) and Lepr^-/-(db/db) (herein referred to as Lepr^-/-; Stock No: 000697) mice were purchased from Jackson laboratories and bred in house. Csf1r^Cre, Csf1r^MeriCreMer, and Csf1r^fl/fl mice were obtained from J W. Pollard (The University of Edinburgh), Cx3cr1^GFP/+ mice were obtained from Drs. Dan Littman (NYU Skirball institute), Flt3^Cre mice were obtained from Thomas Boehm (Max Planck institute) and Tnfrsf11a^Cre mice were obtained from Y. Kobayashi (Matsumoto Dental University). Ccr2^-/- mice were obtained from IF. Charro (UCSF) Csf1r^-/- mice were backcrossed to FVB/NJ for more than 10 generations. Mice were fed ad libitum a rodent irradiated diet containing 45% kcal from lipids (Research Diets Inc., reference D12451i) or 10% kcal from lipids (Research Diets Inc., reference D12450hi) for 8 weeks. In mice supplemented with the CSF-1R inhibitor PLX5622 (Plexxikon), the aforementioned diets were impregnated with 1200 mg of inhibitor per kg of food. In the experiment named 45%>10% the mice were fed 45% lipid diet for 8 weeks then 10% lipid diet for 2 weeks and compared to mice fed 10% lipid diet for 10 weeks. Mice were weighed weekly. Tnfrsf11a^Cre; Csflr^f/f and Csf1r^Cre; Csf1r^f/f mice are osteopetrotic and as such lack teeth. To prevent confounding systemic effects due to nutritional intake problems, the Tnfrsf11a^Cre; Csf1r^f/f Csf1r^Cre; Csf1r^f/f and control littermates were fed a nutritionally fortified water gel. The nutritional gels were replaced every 12 hours.
(§2) Metabolic analysis of Leptin receptor deficient mice, PLX5622-treated mice, anti-PDGFcc treated mice, and control C57Bl/6J mice. Animals were individually housed in a temperature controlled Promethion Metabolic Screening System (Sable Systems International, NV). Food intake was acquired gravimetrically and ambulatory activity was acquired using a laser matrix. Mice were acclimated to this environment on a 12 hr light/dark cycle for 48 hr before the indicated length of recording (24 hr to 120 hr) period began. Fecal bomb calorimetry was performed on feces collected during the last day of metabolic cage recording period, dehydrated in an oven at 60C for 48 hr, then combusted in technical duplicates with a Parr 6725 Semimicro Calorimeter to determine gross caloric intake.
Triglyceride Measurement for Mice. To measure triglycerides, ~ 100 mg of mouse liver was homogenized in 100 µl of PBS + 0.05% Tween 20. Triglyceride was then measured using the free glycerol reagent (Sigma; F6428) as described in the manufacturer’s protocol and normalized to the liver weight.
To quantify the size of the adipocytes, the software image J was used. Regions of interest (ROI) were drawn following the cellular membrane of the adipocytes and the surface of the ROI was determined by the software. 50 adipocytes were measured per field of view of the eWAT. Adipocytes were measured on 3 fields of view, taken with N-Achroplan 10x/0.25 objective. Crown-like structures (CLS) were quantified on the same fields of view. Crown like structures were defined as microscopic foci of dying adipocytes surrounded by macrophages as visualized by H&E staining.

Another assay concerns C57B1/6J mice. The assay can be described thus: Treatment of C57Bl/6J mice fed 45% or 10% lipid diet (diet-induced obesity). Type of assay: in vivo, mouse. Conditions: 1,200 mg PLX5622/kg of food.
Description: as §1
Glucose and insulin tolerance tests were performed as described; in brief, for the glucose tolerance test, the mice were fasted for 4h before experiment, but had water ad libitum. The weight and glycaemia were measured, and the mice were injected intraperitoneally with 2 g glucose (Thermo Scientific) per kg of body weight. Following the glucose injection, glycemia was measured every 30 min for 2 hours. For the insulin tolerance test, the mice were fasted for 4h before experiment, but had water ad libitum. The weight and the glycaemia were measured, and the mice were injected with 0.25U insulin (Sigma) per kg of body weight. Following the glucose injection, glycemia was measured every 30 min for 2 hours. To measure the glycaemia, the tail of the animals was pricked with a 27G needle and a drop of blood was placed on the glucometer (ACCU-CHECK AVIVA, Roche). […]
as §2
Infrared imaging of mice. Infrared images were taken on the last day of metabolic analysis using a FLIR T430sc Infrared Camera. These images were into RAW files and then analyzed in AMIDE. A box was drawn over region of interest (ROI); interscapular (70×30), inguinal (35×35) and dorsal. The 10% top warmest pixels were used for interscapular and inguinal quantifications. The 20% top warmest pixels were used for dorsal quantifications. […]

The test system of assay [1] is epididymal fat pad explants. The assay can be described thus: eWAT (epididymal fat pad) explants cultured ex vivo, lipid storage by adipocytes. In kind it is cell-based, mouse. Conditions: Tnfrsf11a^Cre; Csf1r^f/f fat pads; 100 ng/ml PDGFcc, 10 ng/ml VEGFb or 10 ng/ml IGF1 on days 0, 3, 6. The procedure: Whole Mount Imaging and Cytology of Sorted Macrophages. For whole mount immunofluorescence imaging, after anesthesia and blood collection by cardiac puncture, the mice were perfused with 10 mL PBS at room temperature. Approximately 3 mm^3 pieces of the tissue were incubated in 4% paraformaldehyde (PFA) (Electron Microscopy) diluted in PBS for 30 min at room temperature with agitation, then rinsed with PBS and stained with directly conjugated antibodies for 30 minutes. Then the samples were rinsed with PBS 3× and mounted on cavity slides (Sigma) with Fluoromount G (eBioscience). Approximately 50 µm thick Z-stack and tile scan were acquired with LSM880 Zeiss microscope with 40x/1.3 (oil). Image analysis was performed using Imaris (Bitplane) software.
In Vitro Epididymal Adipose Tissue Explants. Epididymal fat pads of 4-day-old Tnfrsf11a^Cre+Csf1r^fl/fl mice and littermates were dissected and incubated in RPMI with 10% heat de-activated FBS at 37° C. for 14 days. Fresh medium was added to the explants on day 7. At the termination of the experiment, the explants were fixed in 4% PFA for 30 minutes at room temperature with agitation and then rinsed in PBS and permeabilized for 15 minutes in PBS + 0.03% Triton. Subsequently, the explants were blocked with 2% BSA and stained with directly conjugated antibodies. To remove macrophages from wt epididymal fat pads in vitro, 15 µM of the CSF1R inhibitor PLX5622 was added to explants on day 0 and 7 following the addition of fresh medium. For the in vitro rescue experiments, epididymal fat pads of Tnfrsf11a^Cre; Csf1r^fl/fl mice and littermates as well as […] treated fat pads were supplemented with 100 ng/ml of recombinant mouse PDGFcc (R&D systems), 10 ng/ml of recombinant mouse VEGFb (R&D systems), or 10 ng/ml of recombinant mouse IGF1 (R&D systems) three times on days 0, 3, and 6.

The next assay addresses PDGFRA/A homodimers (Homo sapiens, UniProt P16234). Conditions: Gilbertson et al. 2001; cited from earlier work.
The next assay addresses PDGFRB/B homodimers (Homo sapiens, UniProt P09619). Conditions: Gilbertson et al. 2001; cited from earlier work.
Setting [2] is: 10% lipid diet + PLX5622 for 8 weeks.

Chain of PDGFRB/B homodimers (P09619 33-1106, species assumed): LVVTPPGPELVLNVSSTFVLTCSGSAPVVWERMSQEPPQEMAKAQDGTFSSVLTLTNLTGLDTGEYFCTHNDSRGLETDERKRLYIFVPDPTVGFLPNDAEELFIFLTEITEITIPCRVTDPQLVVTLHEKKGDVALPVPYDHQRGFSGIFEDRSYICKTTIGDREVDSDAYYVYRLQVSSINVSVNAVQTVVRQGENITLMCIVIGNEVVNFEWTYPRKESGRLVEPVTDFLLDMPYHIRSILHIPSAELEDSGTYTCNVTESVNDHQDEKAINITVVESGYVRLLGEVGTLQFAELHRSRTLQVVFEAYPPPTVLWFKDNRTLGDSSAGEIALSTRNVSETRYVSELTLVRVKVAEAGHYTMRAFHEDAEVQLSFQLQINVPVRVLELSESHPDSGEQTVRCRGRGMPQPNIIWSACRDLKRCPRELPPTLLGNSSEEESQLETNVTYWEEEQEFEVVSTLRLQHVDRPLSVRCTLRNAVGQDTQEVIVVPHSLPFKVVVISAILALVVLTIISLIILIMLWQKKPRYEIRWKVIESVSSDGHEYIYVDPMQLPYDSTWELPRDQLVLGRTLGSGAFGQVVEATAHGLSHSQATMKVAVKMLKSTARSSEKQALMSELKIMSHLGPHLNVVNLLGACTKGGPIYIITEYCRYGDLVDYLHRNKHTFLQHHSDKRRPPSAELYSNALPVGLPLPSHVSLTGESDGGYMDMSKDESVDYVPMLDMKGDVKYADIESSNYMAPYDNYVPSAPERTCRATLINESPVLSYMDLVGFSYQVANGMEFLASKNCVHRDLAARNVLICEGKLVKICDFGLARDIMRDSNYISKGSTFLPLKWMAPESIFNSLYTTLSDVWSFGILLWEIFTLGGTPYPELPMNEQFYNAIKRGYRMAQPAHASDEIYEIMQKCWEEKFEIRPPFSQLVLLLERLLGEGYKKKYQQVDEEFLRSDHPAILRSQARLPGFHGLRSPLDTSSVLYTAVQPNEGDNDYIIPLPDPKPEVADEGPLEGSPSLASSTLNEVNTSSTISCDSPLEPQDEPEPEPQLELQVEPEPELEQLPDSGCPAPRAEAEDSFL
Chain of PDGFRA/A homodimers (P16234 24-1089, species assumed): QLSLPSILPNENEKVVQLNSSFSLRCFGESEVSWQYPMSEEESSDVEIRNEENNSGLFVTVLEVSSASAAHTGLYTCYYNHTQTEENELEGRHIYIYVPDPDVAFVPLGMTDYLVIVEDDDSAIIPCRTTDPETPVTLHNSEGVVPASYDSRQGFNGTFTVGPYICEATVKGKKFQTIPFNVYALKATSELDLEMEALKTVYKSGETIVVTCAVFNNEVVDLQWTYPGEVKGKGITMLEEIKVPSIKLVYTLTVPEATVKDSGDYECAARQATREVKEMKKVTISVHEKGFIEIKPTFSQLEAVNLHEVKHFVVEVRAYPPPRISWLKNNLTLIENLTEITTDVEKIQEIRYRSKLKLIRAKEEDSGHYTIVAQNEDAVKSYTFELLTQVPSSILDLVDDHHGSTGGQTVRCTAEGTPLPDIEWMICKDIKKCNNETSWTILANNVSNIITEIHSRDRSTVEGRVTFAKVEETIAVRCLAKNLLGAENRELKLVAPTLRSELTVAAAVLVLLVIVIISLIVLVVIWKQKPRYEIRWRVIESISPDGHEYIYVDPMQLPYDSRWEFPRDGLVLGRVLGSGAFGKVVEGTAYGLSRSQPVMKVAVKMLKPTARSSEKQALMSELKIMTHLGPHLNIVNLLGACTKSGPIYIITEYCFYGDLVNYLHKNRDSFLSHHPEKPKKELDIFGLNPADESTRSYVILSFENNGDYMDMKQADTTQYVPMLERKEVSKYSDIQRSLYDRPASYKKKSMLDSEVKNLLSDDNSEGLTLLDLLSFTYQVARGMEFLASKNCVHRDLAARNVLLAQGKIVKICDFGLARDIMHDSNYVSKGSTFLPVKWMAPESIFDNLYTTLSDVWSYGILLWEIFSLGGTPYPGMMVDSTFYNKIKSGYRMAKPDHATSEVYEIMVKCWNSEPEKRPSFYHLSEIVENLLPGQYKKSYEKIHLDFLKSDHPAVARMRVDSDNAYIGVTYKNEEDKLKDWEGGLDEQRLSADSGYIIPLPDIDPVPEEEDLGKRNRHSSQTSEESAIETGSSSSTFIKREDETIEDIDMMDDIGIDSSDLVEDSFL

Turning to `COc1ncc(F)cc1CNc1ccc(Cc2c[nH]c3ncc(C)cc23)c(F)n1` [PLX5622], in the assay on Lepr^-/- (db/db) mice (10% lipid diet + PLX5622), the “Pdgfc expression in adipose tissue” value was “decreased”, the adipocyte size result is “decreased” and the liver inflammation result is “decreased”. Also, in the assay on Lepr^-/- (db/db) mice (setting [2]), the adipose tissue mass result was “decreased” and the weight gain result is “decreased”. For the same molecule, in the assay on Lepr^-/- (db/db) mice (iBAT, PLX5622 in diet), the Dio2 expression result was “increased” and the Ucpl expression entry is on record as “increased”. In the assay on C57B1/6J mice, the “Dio2 expression in the iBAT” value is given as “increased”; the “F4/80+ Tim4- and Tim4+ macrophages” value is “lacked both F4/80^+ Tim4^- and Tim4^+ macrophages”; the “Ucpl expression in the iBAT” value is “increased”. Further, in the assay on C57B1/6J mice (45% lipid diet), the TNF/IL1 production result was “protected against”, the hepatic steatosis result is on record as “protected against” and the metabolic syndrome entry is “protected against”. In addition, in the assay with C57B1/6J mice (high fat diet), the “Pdgfcc expression in fat pads” value is recorded as “did not increase”; the adipocyte hypertrophy result is “did not develop adipocyte hypertrophy”; the “visceral and subcutaneous white adipose tissue mass” value is recorded as “did not increase”; the weight gain result is reported as “gained less weight than controls”.

Take “IGF1: recombinant mouse IGF1 (R&D systems)”: the “rescue of bodipy staining (lipid storage)” value (“rescue of bodipy staining” below) in assay [1] is recorded as “not”.

B1: PDGFcc: mature PDGF-CC protein, growth factor domain dimer released by removal of the CUB domain; exemplary SEQ ID NO: 2 (protein, listed as Homo sapiens)
chain: VVDLNLLTEEVRLYSCTPRNFSVSIREELKRTDTIFWPGCLLVKRCGGNCACCLHNCNECQCVPSKVTKKYHEVLQLRPKTGVRGLHKSLTDVALEHHEECDCVCRGSTGG
modifications: homodimer
As to B1, the “binding to PDGFRA/A homodimers” value with PDGFRA/A homodimers is given as “high affinity”. The “interaction with PDGFRB/B homodimers” value with PDGFRB/B homodimers is on record as “fails to interact”.

B2: recombinant PDGFcc: Recombinant mouse PDGFcc, R&D systems Cat# 1447-PC-025/CF, active/cleaved form, SEQ ID NO: 3 (protein, listed as Mus sp.)
chain: B1 chain with D3N, T8K, R12K, S65R, R84K, S108N, T109A
Consider B2, for which the “rescue of bodipy staining” value in assay [1] was “rescues bodipy staining to control levels”.

B3: VEGFb: recombinant mouse VEGFb (R&D systems) (protein, UniProt P49766 22-207, looked up)
Vascular endothelial growth …: PVSQFDGPSHQKKVVPWIDVYARATCQPREVVVPLSMELMGNVVKQLVPSCVTVQRCGGCCPDDGLECVPTGQHQVRMQILMIQYPSSQLGEMSLEEHSQCECRPKKKESAVKPDRVAIPHHRPQPRSVPGWDSTPGASSPADIIHPTPAPGSSARLAPSAVNALTPGPAAAAADAAASSIAKGGA
Take B3: the “rescue of bodipy staining” value in assay [1] was “can also rescue lipid storage”.
